Assay results as given in patent US20250248979A1, “NOVEL GPX4 INHIBITORS AND USES THEREOF” (THE TRUSTEES OF COLUMBIA UNIVERSITY IN THE CITY OF NEW YORK, priority 2022, published 2025).
In brackets after ≈: the same amount, converted by molar mass. Entries after “also recorded” stand apart in the source; their conditions may differ. Like-named read-outs stand apart in the source and are kept apart here.

Assays:
[1] = tested on: lipid peroxidation in HT-1080 cells; assay: C11-BODIPY lipid peroxidation flow cytometry assay; format: cell-based, human
[2] = target: T1, GPX4 (Homo sapiens, UniProt P36969); assay: GPX4 activity assay in cell lysates (NADPH-coupled); format: biochemical; set-up: endogenous in cells; host or cells: A-673 cell lysate; settings: for IC50: mean±SD, n=3 (FIG. 84E), read-out: IC50 in the in vitro GPX4 activity assay
T1 sequence (P36969 1-170 isoform P36969-2): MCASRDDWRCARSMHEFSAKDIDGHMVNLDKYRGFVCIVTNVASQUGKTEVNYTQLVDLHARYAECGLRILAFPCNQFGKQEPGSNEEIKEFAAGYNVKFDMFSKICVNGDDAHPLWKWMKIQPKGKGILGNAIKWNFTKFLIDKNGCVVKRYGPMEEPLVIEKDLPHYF
Procedure, shortened: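 Native GPX4 in lysates of A-673 cells grown with 20 nM sodium selenite; lysate preincubated with compound 45 min at 37 °C in pH 8.0 buffer with 3 mM GSH, 0.5 mM NADPH and glutathione reductase. Reaction started with phosphatidylcholine hydroperoxide; NADPH consumption followed at 340 nm over 25 min; triplicates.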

[3] = tested on: Huh7 cells; assay: Cellular dose response assay, Huh7; format: cell-based, human
From the text: HT-1080 (human [Homo sapiens] […] fibrosarcoma), A-673 (human [Homo sapiens] […] Ewing's sarcoma), and SK-HEP-1 (human [Homo sapiens] […] hepatic adenocarcinoma), cells were obtained from ATCC. Huh7 (human [Homo sapiens] […] hepatocellular carcinoma), HLF (human [Homo sapiens] […] hepatocellular carcinoma), HepG2 (human [Homo sapiens] […] hepatocellular carcinoma), cells were obtained from the Cancer Cell Bank at Columbia University Irving Medical Center. HT-1080, A-673, Huh-7, and HLF cells were grown in Dulbecco's Modified Eagle Medium (DMEM) supplemented with 10% heat inactivated fetal bovine serum (HI-FBS), 1% non-essential amino acids, and 1% penicillin streptomycin. HepG2 and SK-HEP-1 cells were grown in Eagle's Minimum Essential Medium (EMEM) supplemented with 10% HI-FBS, and 1% penicillin-streptomycin. All cells were cultured at 37° C. and 5% CO2.
HT-1080, HepG2, Huh7, HLF, and SK-HEP-1 cells were seeded into opaque white 384-well plates at 1500 cells per well then incubated at 37° C. with 5% CO2 overnight. The next day, compounds of interest were dissolved in DMSO and 12-point 2-fold dilution series were prepared with and without Fer-1. Cells were treated in triplicate (final DMSO concentration of 0.4% in all wells, including DMSO-only control wells) and incubated for a further 48 hours at 37° C. and 5% CO2. Cell viability was evaluated using CellTiter-Glo (Promega G7573) and luminescence was recorded on a Victor 5 plate reader. Data were analyzed in GraphPad Prism 9 and error bars represent standard deviation values for three technical replicates in a representative experiment.

[4] = in vitro; format: in vitro ADME, human; settings: human, microsomes
Protocol: (§1) […]. The incubation timepoints measured were 0, 5, 10, 15, 30, and 45 minutes. All samples were prepared in duplicate and analyzed by LC-MS/MS.

[5] = in vitro; format: in vitro ADME, mouse; settings: mouse, microsomes
Protocol: as §1

[6] = Kinetic aqueous solubility
[7] = tested on: DTP cells derived from PC9; assay: Drug-tolerant persister cell model, DTP cells; settings: for % Viability Persister: 48 hours; for viability at 10 µM: Homo sapiens
[8] = tested on: SU-DHL-6; assay: Cytotoxicity in DLBCL cells, SU-DHL-6; format: cell-based, human; settings: for IC50: SU-DHL-6
[9] = tested on: SU-DHL-5; assay: Cytotoxicity in DLBCL cells, SU-DHL-5; format: cell-based, human; settings: for IC50: SU-DHL-5
[10] = tested on: U-2932; assay: Cytotoxicity in DLBCL cells, U-2932; format: cell-based, human; settings: for IC50: U-2932
[11] = HT-1080 cells, with and without fer-1
[12] = compounds alone, Table 4, read-out: IC50 (uM) Huh7^a
[13] = with fer-1, Table 4, read-out: IC50 (uM) Huh7^b
[14] = 200 μM, generation 1, mean ± s.d., n = 3
[15] = Fer-1 1.0 μM, read-out: IC50 (μM) with Fer-1

Compound | lipid peroxidation (C11-BODIPY), result in words [1, 11] | IC50 [3, 12] | IC50 [3, 13] | GPX4 inhibition ([2]; 200 μM) | GPX4% inhibition at 200 (μM) [2, 14] | GPX4% inhibition at 20 (μM) ([2]; generation 1) | GPX4% inhibition at 50 (μM) ([2]; 50 μM, generation 1) | GPX4% inhibition at 100 (μM) ([2]; generation 1) | Microsome Stability t1/2 (min) human [4] | Microsome Stability t1/2 (min) mouse [5] | Solubility ([6]; aqueous solubility, Table 9) | selectivity for DTPs vs PC9 parental cells, result in words [7] | % Viability Persister ([7]; dose 1.0 μM) | % Viability Persister ([7]; dose 10.0 μM) | IC50 [2] | other results
COc1cccc2[nH]c(C(=O)n3ccnc3)cc12 [LOC1886, reference compound] | induces lipid peroxidation in cells | – | – | – | – | – | – | – | – | – | – | – | – | – | – | inhibition at 200 µM ([2]; 200 μM, mean ± s.d., n = 3, read-out: GPX4% inhibition at 200): 31.9 ± 6%
CC(C)(COC(=O)CCl)NC(=O)c1cc2ccccc2[nH]1 [QW-147] | – | 98.7 µM | 113 µM | complete loss in potency of inhibitory activity | −3.3 ± 45.3% | – | – | – | – | – | – | – | – | – | – | –
CC(C)(COC(=O)CCl)NC(=O)c1cc2cc([N+](=O)[O-])ccc2[nH]1 [QW-148] | – | 15.8 µM | 55 µM | – | 87.3 ± 34.6% | 66.7 ± 1.4% | 79.2 ± 5.8% | 62.7 ± 10.9% | – | – | – | – | – | – | – | –
COc1ccc2cc(C(=O)NC(C)(C)COC(=O)CCl)[nH]c2c1 [QW-152] | – | 59.6 µM | 110 µM | complete inhibition | 150.4 ± 20.3% | 27.9 ± 5.5% | 56.0 ± 6.2% | 70.5 ± 9.2% | 1.5 min | 0.9 min | 88 µM (≈ 29.8 µg/mL) | – | – | – | – | GPX4 inhibition ([2]; 50 μM): approximately 60%
CC(C)(COC(=O)CCl)NC(=O)c1cc2ccc(Br)cc2[nH]1 [QW-156] | induced fer-1 rescuable increases in lipid peroxidation | 17.8 µM | 55.4 µM | complete inhibition | 170.3 ± 33.5% | 61.2 ± 0.5% | 98.6 ± 4.1% | 95.5 ± 6.2% | >1000 min | >1000 min | 23 µM (≈ 8.92 µg/mL) | no selectivity for DTP cells over PC9 cells at most concentrations tested | 122.00% | 73.25% | – | % Viability Persister ([7]; dose 25.0 μM): 24.50%; % Viability Persister ([7]; dose 50.0 μM): 2.50%; GPX4 inhibition ([2]; 50 μM): complete GPX4 inhibition
Cn1nc(C(=O)NC(C)(C)COC(=O)CCl)c2ccc(Br)cc21 [QW-314] | – | – | – | complete inhibition | – | – | – | – | – | – | – | selective lethality in DTPs vs PC9 parental cells; also recorded: preferential induction of significantly more cell death in the DTP cells compared to the parental cells | – | – | 5.8 µM | times less potent than RSL3 in cells [3]: approximately 10 times; GI50 ([3]; Homo sapiens, Huh-7): ~1 µM; IC50 ([3]; Homo sapiens, Huh-7, read-out: IC50 (uM) Huh7^a): 1.8 µM; IC50 ([3]; Homo sapiens, Huh-7, read-out: IC50 (uM) Huh7^b): 92.9 µM; lipid peroxidation (C11-BODIPY), result in words [1]: increased lipid peroxidation that is rescuable by ferrostatin-1; half-life at 1 μM ([4]; pH 7.4): 6 min; half-life at 1 μM ([5]; pH 7.4): 5.3 min; solubility at 1 h ([6]; phosphate buffered saline, pH 7.4, aqueous buffer, kinetic from dmso stock): 61 µM (≈ 24.6 µg/mL); viability at 10 µM ([7]; 48 h, read-out: % Viability Persister): 22%; viability at 10 µM ([7]; read-out: % Viability Persister + 2 μM Fer-1): 73%; GPX4 inhibition ([2]; 20 µM): complete inhibition in the assay even at 20 μM; inhibition at 20 µM ([2]; read-out: GPX4% inhibition at 20 (μM)): 108 ± 5.3%; inhibition at 200 µM ([2]; read-out: GPX4% inhibition at 200 (μM)): 93.1 ± 6%
COc1ccc(-c2ccc3c(C(=O)NC(C)(C)COC(=O)CCl)nn(C)c3c2)cc1Cl [QW-446] | induced fer-1 rescuable increases in lipid peroxidation | – | – | – | – | – | – | – | 1.6 min | 1.2 min | >1000 µM | show DTP selectivity relative to PC9 parental cells; also recorded: selective and similar or stronger cytotoxicity to DTP cells | – | 26.50% | 0.49 µM | ferroptosis induction / potency in SU-DHL-6 cells, result in words [8]: a potency that is similar to RSL3; aqueous solubility [6]: up to 1000 μM; Solubility ([6]; 1% DMSO, Phosphate Buffered Saline pH 7.4, 1 hour, ambient, UV/Vis absorbance): 22 µM (≈ 10.2 µg/mL); % Viability Persister ([7]; dose 0.5 μM): 127.75%; % Viability Persister + 2 μM Fer-1 ([7]; dose 0.5 μM): 110.75%; % Viability Persister + 2 μM Fer-1 ([7]; dose 10.0 μM): 107.50%; % Viability Persister ([7]; dose 20.0 μM): 4.25%; % Viability Persister + 2 μM Fer-1 ([7]; dose 20.0 μM): 27.00%; GPX4 inhibitory activity, result in words [2]: greater GPX4 inhibitory activity than QW-314 at 5 μM; GPX4% inhibition at 2.5 μM [2]: 79.1 ± 4.4%; GPX4% inhibition at 5 μM ([2]; 5 μM): 88.1 ± 2.7%; GPX4 inhibition rate ([2]; concentration not given): 90%
CC(C)(COC(=O)CCl)NC(=O)c1nn(Cc2cc(Cl)cc(Cl)c2)c2cc(-c3ccc(N4CCOCC4)c(Cl)c3)ccc12 [QW-852] | increase in lipid-ROS which can be attenuated by ferrostatin-1 | – | – | – | – | – | – | – | – | – | – | greater potency and selectivity to DTP cells | 48.00% | 3.25% | – | Selectivity^a (fold) [8]: 269 fold; IC50 ([8]; 24 h, read-out: IC50): 0.019 µM; IC50 [8, 15]: 5110 µM; Selectivity^a (fold) [9]: >1000 fold; IC50 [9, 15]: 1.58 µM; Selectivity^a (fold) [10]: 6 fold; IC50 ([10]; 24 h, read-out: IC50): 1.37 µM; IC50 [10, 15]: 7.9 µM; % Viability Persister + 2 μM Fer-1 ([7]; dose 1.0 μM): 93.75%; GPX4 inhibitory activity, result in words [2]: greater GPX4 inhibitory activity than QW-446 at 2.5 μM concentration; GPX4% inhibition at 2.5 μM ([2]; 4th generation): 88.2 ± 13.3%
COC(=O)c1ccc([C@@H]2c3[nH]c4ccccc4c3C[C@@H](C(=O)OC)N2C(=O)CCl)cc1 [RSL3, reference compound] | – | 0.6 µM | 34.4 µM | – | – | – | – | – | 14 min | 2.4 min | 26 µM (≈ 11.5 µg/mL) | – | 6.00% | – | 7.6 µM | IC50 ([3]; compounds alone, Table 7, read-out: IC50 (uM) Huh7^a): 0.6 µM; IC50 ([3]; with fer-1, Table 7, read-out: IC50 (uM) Huh7^b): 34.4 µM; Selectivity^a (fold) [8]: 71 fold; IC50 ([8]; 24 h, read-out: IC50): 0.019 µM; IC50 [8, 15]: 1.35 µM; Selectivity^a (fold) [9]: 5 fold; IC50 ([9]; 24 h, read-out: IC50): 0.4 µM; IC50 [9, 15]: 2.15 µM; Selectivity^a (fold) [10]: >1000 fold; IC50 ([10]; 24 h, read-out: IC50): 0.16 µM; IC50 [10, 15]: 316 µM; GPX4% inhibition at 200 (μM) ([2]; 200 μM, mean ± s.d., n = 3): 112.5 ± 6.5%
